Test: Human HepG2 cell viability assay in 384 well format
Format: toxicity, cell-based
Set-up: dose 125 nL, time 70.5 hour; cytotoxicity at 70.5 h: concentration not given beside the values
Conditions: HepG2 cells, read-out: Inhibition

In order of rising cytotoxicity at 70.5 h:
1. O=C(c1ccoc1)N(Cc1cccnc1)C1CC1  -21.3%
2. Cc1ccc(N2C[C@@H](CN3CCOCC3)[C@@H](CO)C2)nn1  -16.8%
3. CCCC(=O)N1CCC(O)(Cn2c(CC)nc3ccccc3c2=O)CC1  -16.7%
4. Cc1nn(C)c(N(C)C)c1CNC(C)Cc1c(F)cccc1F (centres undefined)  -16.6%
5. O=C(NC[C@]12COC[C@H]1CN(Cc1nccs1)C2)c1ccccc1  -15%
6. CCN1CCOC(CNCc2csc(C)n2)C1 (centres undefined)  -14.2%
7. CCC(CO)N(Cc1ccccn1)Cc1ccc(-c2ccn[nH]2)s1 (centres undefined)  -14%
8. N#Cc1cc(CSCCN2CCOCC2)ccc1F  -13.8%
9. O=C(c1cnccn1)N1CCN(c2ccnc3ccsc23)CC1  -13.2%
10. CCC(=O)Nc1nnc(CCCOc2ccccc2)s1  -13.1%
11. CCN(C)Cc1n[nH]c(=O)n1-c1ccc(C)c(C)c1  -11.7%
12. Fc1cccc(-c2noc3c2CN(Cc2cncn2C2CC2)CC3)c1  -11.3%
13. CC(=O)N1CCCC(C(=O)NCc2noc(Cc3ccccc3)n2)C1 (centres undefined)  -11.1%
14. O=C(Nc1ccc(F)c(-n2cccc2)c1)NC1(CCO)CCOCC1  -10.8%
15. Cc1noc(C)c1CN1CCCC1C(=O)OCc1ccccc1 (centres undefined)  -10.7%
16. CN1CC(=O)N(c2cccc(F)c2)CC12CCN(S(C)(=O)=O)C2 (centres undefined)  -10.7%
17. Cc1cccc2ncn(C(C)Cn3cccn3)c(=O)c12 (centres undefined)  -10.4%
18. O=C(NC1CCN(c2ccccc2OC(F)F)C1)c1c[nH]nn1 (centres undefined)  -10.2%
19. CCc1nnc2n1CCN(Cc1csc(-c3ncccn3)n1)C2  -9.92%
20. CC(=O)N1CCc2c(nc(-c3ccccn3)nc2N(C)CC(O)CO)C1 (centres undefined)  -9.73%
21. Cc1ccc2c(c1)C(NC(=O)N(C)C)CC21CCN(CC2CC2)CC1 (centres undefined)  -9.46%
22. COCCNC(=O)c1cc(C(C)C)nc(N2CCCC2)n1  -9.32%
23. c1ccc(NCc2cnc3n2CCN(CC2CCOC2)CC3)nc1 (centres undefined)  -8.55%
24. CC(NCc1cnc(C2CCC2)s1)c1ccc(-n2cccn2)cc1 (centres undefined)  -8.33%
25. CNC(=O)c1cn2cc(-c3cccc(Cl)c3)n(CC3CC3)c(=O)c2n1  -8.05%
26. CN(Cc1ccccc1Cl)C(C(=O)O)c1ccc(F)c(CO)c1 (centres undefined)  -7.98%
27. CC(C)N1CCO[C@@H]2CN(S(=O)(=O)c3cccs3)CC[C@@H]2C1  -7.93%
28. CCCc1nc(CN(CC)Cc2ccoc2)no1  -7.87%
29. CCN1CCOCC12CCN(C(=O)c1ccsc1)CC2  -7.84%
30. CC(C)Cc1noc(C2CCCCN2C(=O)CCc2cnn(C)c2)n1 (centres undefined)  -7.69%
31. CCn1cnnc1CNC(=O)NC(c1ccccc1)C1CCCC1 (centres undefined)  -7.51%
32. CN1CCCC2(CC1)CCN(C(=O)CCc1ccccc1F)CC2  -6.92%
33. Cc1ccc(C)c2c(O)cc(CN[C@H]3CCCCNC3=O)nc12  -6.91%
34. COc1cc(CN(C)C(=O)NCc2nccs2)ccc1SC  -6.87%
35. CCc1nc(CN2CCN(C(=O)c3cc(C)nn3C)CC2)cs1  -6.68%
36. CC(C)(N)c1nc(C(F)F)cc(=O)[nH]1  -6.3%
37. CCCNC(=O)CC1OCCc2ccsc21 (centres undefined)  -6.25%
38. O=C(C[S+]([O-])Cc1c(F)cccc1Cl)N1CCc2sccc2C1 (centres undefined)  -6.1%
39. O=C(c1cscn1)N1CCc2ncc(Cn3cncn3)n2CC1  -6.09%
40. CC(Oc1ccccc1C(F)(F)F)C(=O)NCC(=O)N1CCCC1 (centres undefined)  -6.07%
41. CN1CCN(C(=O)C2CCN(c3cccnn3)CC2)CC1  -5.88%
42. Cc1nc(-c2ccccc2C)n(CC(=O)NC(C)C2CC2)n1 (centres undefined)  -5.7%
43. O=C(CCOc1ccccc1)NS(=O)(=O)Cc1ccccc1  -5.31%
44. CN(C(=O)c1ccncc1)c1nnc(C2CCOC2)s1 (centres undefined)  -5.28%
45. O=C(c1ccc2[nH]nnc2c1)N1CCCC(n2cccn2)C1 (centres undefined)  -5.26%
46. COCCCN(Cc1ccncc1)C(=O)CSc1ccc(F)cc1  -5.19%
47. COCCN1CCc2ncnc(NC(C)C)c2CC1  -5.11%
48. Cc1noc(C)c1C(=O)NCC(c1cccc(F)c1)N(C)C (centres undefined)  -4.95%
49. CCN(CC)CC1CCN(Cc2ccn(C)c(=O)c2)CC1  -4.81%
50. COCCN(C)CCN1CC2(CCN(C3CCCCC3)CC2)OC1=O  -4.75%
51. CS(=O)(=O)c1cccc(C(N)c2ccc(Cl)cc2)c1 (centres undefined)  -4.71%
52. CN(Cc1ccc2nonc2c1)C(=O)c1ccc(C2CCCO2)s1 (centres undefined)  -4.66%
53. CCn1c(NCc2cccnc2)nc2c(C)nn(C)c2c1=O  -4.56%
54. COc1ccc(S(=O)(=O)N2C[C@@H]3CN(C)CCO[C@@H]3C2)cc1  -4.18%
55. O=C1CC(N(C(=O)c2ccc(Cl)c(Cl)c2)C2CC2)C(=O)N1 (centres undefined)  -4.14%
56. CC(C)(C)CC(=O)N1CC[C@H]2CC(=O)N(CCc3c[nH]cn3)CC[C@H]2C1  -4.11%
57. CCN(C)S(=O)(=O)N(CC)Cc1cccc(-c2ccncc2)c1  -4.01%
58. CN(Cc1ccc(N2CCOCC2)cc1)C(=O)Cn1cccnc1=O  -3.91%
59. CC(C)(C)OCCN(Cc1cccc(O)c1)C1CCC(O)CC1 (centres undefined)  -3.74%
60. Cc1sc2c(C3CCCN(C(C)C)C3)nc(C)n2c1C (centres undefined)  -3.36%
61. COCCN1CCC(CNC(=O)C2(c3ccccc3)CCC2)C1 (centres undefined)  -3.28%
62. CCN1CCN(S(=O)(=O)N2CCCC2)[C@H]2CS(=O)(=O)C[C@H]21  -3.04%
63. O=C(NCCc1ccn(-c2ccccc2)n1)N1CCC1  -2.97%
64. Cc1nc(CNC(=O)Nc2ccc3c(ccn3CCN(C)C)c2)no1  -2.87%
65. Cc1nccnc1CN1CCC2(CCCN(C3CCOCC3)C2=O)C1 (centres undefined)  -2.69%
66. CNc1nc(CNC(=O)Nc2ccc(OC(C)C)cc2C)cs1  -2.53%
67. CCCc1cc(NCCCC2CCOC2)n2nccc2n1 (centres undefined)  -2.1%
68. CN(C)C(=O)CO[C@H]1CN(Cc2ccsc2)[C@@H]2COC[C@H]12  -1.85%
69. Cc1nc(C)c(C(=O)N2CCc3[nH]nc(COc4ccccc4)c3C2)s1  -1.76%
70. CO[C@@H]1CCC[C@@H](NC(=O)CCCn2cncn2)[C@H]1O  -1.73%
71. COc1cccc(CNCc2c(C)nc3sc(C)cn23)c1OC  -1.69%
72. Cc1ccc(OCC(=O)Nc2ncccc2OC(F)F)cc1  -1.62%
73. NC(=O)c1ccc(CN2CCC(N3CCCCC3)CC2)cc1  -1.57%
74. Cc1cc(CC(C)Nc2ncc(C)c(N(C)C)n2)[nH]n1 (centres undefined)  -1.49%
75. Cc1ncsc1-c1nnc(C2CCN(Cc3ccccc3)CC2)o1  -1.36%
76. CCC1(CC)Cc2ccccc2-c2nc(NCCO)[nH]c(=O)c21  -1.26%
77. CN(C)Cc1ccnc(C2CCCN2Cc2cc3ccccc3s2)n1 (centres undefined)  -1.24%
78. c1ccc(-c2cc(CNCCCN3CCCCC3)c3nnnn3c2)cc1  -0.978%
79. CCCNC(=O)C(C)Nc1ccc(COCC)cc1 (centres undefined)  -0.943%
80. Cc1nn(C(C)C)c(C)c1CN1CCC(c2cc(C(C)C)n[nH]2)CC1  -0.772%
81. COCC(=O)N1CCC2(CC1)CC(OC)c1ccc(F)cc12 (centres undefined)  -0.706%
82. CC(C)(C)n1ncc(NCC(O)c2ccc(F)c(F)c2)c(Cl)c1=O (centres undefined)  -0.243%
83. CC(=O)NC1CCCN(c2ccc(C#N)cc2C(F)(F)F)C1 (centres undefined)  -0.014%
84. Cn1cnnc1C1CCCN(c2nc3ccccc3o2)C1 (centres undefined)  0.708%
85. O=C(Cc1cccnc1)N1CCCC2(CCN(CC3CCOCC3)C2)C1 (centres undefined)  1.37%
86. CCc1ccc(C(=O)N2CCN(CC(O)c3ccccc3)CC2)o1 (centres undefined)  1.67%
87. Cc1csc2c(C3CCCN(C(=O)CCCn4cncn4)C3)nc(C)n12 (centres undefined)  2.61%
88. CC(C(=O)NCc1ccc(N2CCCCCC2)nc1)n1cncn1 (centres undefined)  3.18%
89. CNC(=O)c1ccc(OC2CCN(S(C)(=O)=O)CC2)c(Cl)c1  3.83%
90. COc1ccc(NC(=O)C2CCOC2)c(N2CCN(C(C)=O)CC2)n1 (centres undefined)  4.61%
91. OCCN1CC2(CCN(CC3CC3)CC2)c2ccccc21  4.7%
92. COCc1noc(Cn2ncn3cccc3c2=O)n1  6.69%
93. CCn1cc(CNc2ccc(F)c(F)c2)cn1  8.3%
94. Cc1nccc(CNS(=O)(=O)N(C)Cc2ccc(Cl)cc2)n1  8.78%
95. CC(=O)N1CCC(Oc2ccc(C#N)cc2)CC1  9.28%
96. Cc1nc(CN2C[C@H]3C[C@H](C(=O)NCC4CC4)N(C)[C@H]3C2)cs1  9.54%
97. Cc1ccc(C(F)(F)F)cc1NCC(=O)Nc1c(C)nn(C)c1C  11.3%
98. CCn1nc2c(cc1=O)CN(CC1CCCCO1)CC2 (centres undefined)  11.3%
99. O=C(C1CCS(=O)(=O)C1)N1CCN(c2cnccn2)CC1 (centres undefined)  13%
100. O=C(NCCn1ccnc1)c1ccn(-c2ccccc2F)n1  13.4%
101. CCOC(=O)N1[C@@H](c2ccco2)[C@@H](C(=O)NC)C[C@]12CCCCNC2=O  15.2%
102. Cc1cc(CN2CCC(c3nccn3C(C)C)CC2)ccc1F  15.8%
103. OCc1ccc(-c2c(-c3ccccc3)ncn2CCN2CCOCC2)o1  16.6%
104. Cc1nc(CN2CCCC(N(C)CCc3ccncc3)C2)no1 (centres undefined)  17.8%
105. Cc1ccc(CN(C)C(=O)CNC(=O)N2CCc3ccccc3C2)o1  17.9%
106. N#Cc1ccccc1C(=O)N1C[C@H]2CC[C@@H]1CN(c1ncccn1)C2  18.3%
107. Cc1c[nH]c(C2CCCN(Cc3ccccc3C(=O)O)C2)n1 (centres undefined)  18.7%
108. COCCN(Cc1ccco1)Cc1nc(-c2ccccc2)no1  19.2%
109. CCN(CC)S(=O)(=O)N(Cc1cccc(C)c1)Cc1ccccn1  19.3%
110. Nc1cc(C(=O)N2CCC3(CC2)Nc2ccccc2NC3=O)ccn1  19.6%
111. CC(=O)N1CCC2(CCN(S(=O)(=O)c3ccccc3)CC2)C1  22.3%
112. Cc1nc(C)n(CC2CCCN(Cc3ncc(C(C)(C)C)o3)C2)n1 (centres undefined)  23%
113. CC(=O)c1c[nH]c(C(=O)N2CCN(C(C(N)=O)c3ccccc3)CC2)c1 (centres undefined)  47.9%
114. CCc1ccccc1CN1CCn2nc(CNC(C)=O)cc2C1  59.7%
